Measurements from patent US20210395256A1, “TYROSINE KINASE INHIBITORS, COMPOSITIONS AND METHODS THERE OF” (Betta Pharmaceuticals Co., Ltd., priority 2018, published 2021).

What follows are molecules tested against TrkA kinase (Homo sapiens, UniProt P04629) (assay: TrkA kinase assay (mobility shift assay)). Details: class symbols; read-out: Trk A Kinase IC50.
Sequence of TrkA kinase (P04629 33-796): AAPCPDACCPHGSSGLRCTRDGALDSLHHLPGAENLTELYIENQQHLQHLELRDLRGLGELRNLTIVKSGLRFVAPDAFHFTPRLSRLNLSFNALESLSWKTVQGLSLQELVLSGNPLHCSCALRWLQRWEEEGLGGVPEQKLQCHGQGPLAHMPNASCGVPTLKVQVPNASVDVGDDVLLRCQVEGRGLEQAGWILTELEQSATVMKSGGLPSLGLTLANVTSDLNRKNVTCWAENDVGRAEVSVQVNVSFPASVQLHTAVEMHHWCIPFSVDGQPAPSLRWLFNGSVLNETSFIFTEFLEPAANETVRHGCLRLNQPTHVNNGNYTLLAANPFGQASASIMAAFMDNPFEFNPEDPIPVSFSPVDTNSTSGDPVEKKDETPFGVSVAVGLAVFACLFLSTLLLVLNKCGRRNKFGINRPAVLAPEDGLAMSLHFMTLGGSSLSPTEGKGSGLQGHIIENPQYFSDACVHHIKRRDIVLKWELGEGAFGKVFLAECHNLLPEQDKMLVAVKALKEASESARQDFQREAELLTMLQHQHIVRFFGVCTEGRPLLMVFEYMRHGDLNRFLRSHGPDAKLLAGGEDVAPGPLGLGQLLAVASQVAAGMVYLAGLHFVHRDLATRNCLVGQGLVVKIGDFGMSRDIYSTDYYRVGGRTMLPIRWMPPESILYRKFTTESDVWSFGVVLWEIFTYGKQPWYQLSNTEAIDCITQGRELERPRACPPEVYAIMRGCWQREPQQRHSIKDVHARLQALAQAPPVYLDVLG
Assay type: biochemical
Procedure, shortened: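 Caliper mobility-shift readout of FAM-labelled peptide conversion by TrkA in 50 mM HEPES pH 7.5, 0.0015% Brij-35, with ATP; enzyme preincubated 10 min with compound (10-point dilution), reaction at 28 °C, EDTA stop. Inhibition relative to DMSO and no-enzyme controls; IC50 by four-parameter fit.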
`Cc1ccc2nc(-c3cnn4ccc(N5CCC[C@@H]5c5cc(F)ccc5F)nc34)[nH]c2n1` [Compound 106, (R)-2-(5-(2-(2,5-difluorophenyl)pyrrolidin-1-yl)pyrazolo[1,5-a]pyrimidin-3-yl)-5-methyl-3H-imidazo[4,5-b]pyridine] showed an IC50 of no more than 10 nM.
`N#Cc1ccc2nc(-c3cnn4ccc(N5CCC[C@@H]5c5cc(F)ccc5F)nc34)[nH]c2c1` [Compound 107, (R)-2-(5-(2-(2,5-difluorophenyl)pyrrolidin-1-yl)pyrazolo[1,5-a]pyrimidin-3-yl)-1H-benzo[d]imidazole-6-carbonitrile] showed an IC50 of no more than 10 nM.
`Fc1ccc(F)c([C@H]2CCCN2c2ccn3ncc(-c4nc5ccc(F)nc5[nH]4)c3n2)c1` [Compound 108, (R)-2-(5-(2-(2,5-difluorophenyl)pyrrolidin-1-yl)pyrazolo[1,5-a]pyrimidin-3-yl)-5-fluoro-3H-imidazo[4,5-b]pyridine] was tested, and the IC50 was no more than 10 nM.
`Fc1ccc(F)c([C@H]2CCCN2c2ccn3ncc(-c4nc5cc(OC(F)F)c(OC(F)F)cc5[nH]4)c3n2)c1` [Compound 109, (R)-3-(5,6-bis(difluoromethoxy)-1H-benzo[d]imidazol-2-yl)-5-(2-(2,5-difluorophenyl)pyrrolidin-1-yl)pyrazolo[1,5-a]pyrimidine] gave an IC50 of no more than 10 nM.
Work on `COC(=O)Oc1cc2nc(-c3cnn4ccc(N5CCC[C@@H]5c5cc(F)ccc5F)nc34)[nH]c2cc1OC(=O)OC` [Compound 115, (R)-2-(5-(2-(2,5-difluorophenyl)pyrrolidin-1-yl)pyrazolo[1,5-a]pyrimidin-3-yl)-1H-benzo[d]imidazole-5,6-diyl dimethyl bis(carbonate)] yielded an IC50 greater than 50 nM.
`Fc1ccc(F)c([C@H]2CCCN2c2ccn3ncc(-c4nc5ccc(SC(F)(F)F)cc5[nH]4)c3n2)c1` [Compound 116, (R)-5-(2-(2,5-difluorophenyl)pyrrolidin-1-yl)-3-(6-((trifluoromethyl)thio)-1H-benzo[d]imidazol-2-yl)pyrazolo[1,5-a]pyrimidine] was tested, and the IC50 was 10 to 50 nM.
`Oc1cc2nc(-c3cnn4ccc(N5CCC[C@@H]5c5cc(F)ccc5F)nc34)[nH]c2cc1O` [Compound 117, (R)-2-(5-(2-(2,5-difluorophenyl)pyrrolidin-1-yl)pyrazolo[1,5-a]pyrimidin-3-yl)-1H-benzo[d]imidazole-5,6-diol] was tested, and the IC50 was no more than 10 nM.
Work on `Fc1ccc(F)c([C@H]2CCCN2c2ccn3ncc(-c4nc5cc(O[C@@H]6CCOC6)c(O[C@H]6CCOC6)cc5[nH]4)c3n2)c1` [Compound 118, 5-((R)-2-(2,5-difluorophenyl)pyrrolidin-1-yl)-3-(5-(((R)-tetrahydrofuran-3-yl)oxy)-6-(((S)-tetrahydrofuran-3-yl)oxy)-1H-benzo[d]imidazol-2-yl)pyrazolo[1,5-a]pyrimidine] yielded an IC50 of 10 to 50 nM.
Molecule `N#CCOc1cc2nc(-c3cnn4ccc(N5CCC[C@@H]5c5cc(F)ccc5F)nc34)[nH]c2cc1OCC#N` [Compound 119, (R)-2,2′-((2-(5-(2-(2,5-difluorophenyl)pyrrolidin-1-yl)pyrazolo[1,5-a]pyrimidin-3-yl)-1H-benzo[d]imidazole-5,6-diyl)bis(oxy))diacetonitrile] has an IC50 of no more than 10 nM.
Molecule `COc1cc2nc(-c3cnn4ccc(N5CCC[C@@H]5c5cc(F)ccc5F)nc34)oc2cc1OC` [Compound 120, (R)-2-(5-(2-(2,5-difluorophenyl)pyrrolidin-1-yl)pyrazolo[1,5-a]pyrimidin-3-yl)-5,6-dimethoxybenzo[d]oxazole] has an IC50 of no more than 10 nM.
Work on `Fc1ccc(F)c([C@H]2CCCN2c2ccn3ncc(-c4nc5nc6ccccc6nc5[nH]4)c3n2)c1` [Compound 121, (R)-2-(5-(2-(2,5-difluorophenyl)pyrrolidin-1-yl)pyrazolo[1,5-a]pyrimidin-3-yl)-1H-imidazo[4,5-b]quinoxaline] yielded an IC50 of 10 to 50 nM.
`Cc1ccnc2[nH]c(-c3cnn4ccc(N5CCC[C@@H]5c5cc(F)ccc5F)nc34)nc12` [Compound 122, (R)-2-(5-(2-(2,5-difluorophenyl)pyrrolidin-1-yl)pyrazolo[1,5-a]pyrimidin-3-yl)-7-methyl-3H-imidazo[4,5-b]pyridine] was tested, and the IC50 was 10 to 50 nM.
With `Cn1c(-c2cnn3ccc(N4CCC[C@@H]4c4cc(F)ccc4F)nc23)nc2cnccc21` [Compound 124, (R)-2-(5-(2-(2,5-difluorophenyl)pyrrolidin-1-yl)pyrazolo[1,5-a]pyrimidin-3-yl)-1-methyl-1H-imidazo[4,5-c]pyridine] the IC50 was 10 to 50 nM.
Molecule `COc1ccc2nc(-c3cnn4ccc(N5CCC[C@@H]5c5cc(F)ccc5F)nc34)[nH]c2c1F` [Compound 127, (R)-5-(2-(2,5-difluorophenyl)pyrrolidin-1-yl)-3-(7-fluoro-6-methoxy-1H-benzo[d]imidazol-2-yl)pyrazolo[1,5-a]pyrimidine] has an IC50 of no more than 10 nM.
`Fc1ccc(F)c([C@H]2CCCN2c2ccn3ncc(-c4nc5nccnc5[nH]4)c3n2)c1` [Compound 128, (R)-2-(5-(2-(2,5-difluorophenyl)pyrrolidin-1-yl)pyrazolo[1,5-a]pyrimidin-3-yl)-1H-imidazo[4,5-b]pyrazine] gave an IC50 of no more than 10 nM.
With `Fc1ccc(F)c([C@H]2CCCN2c2ccn3ncc(-c4nc5ncc(Br)nc5[nH]4)c3n2)c1` [Compound 129, (R)-6-bromo-2-(5-(2-(2,5-difluorophenyl)pyrrolidin-1-yl)pyrazolo[1,5-a]pyrimidin-3-yl)-1H-imidazo[4,5-b]pyrazine] the IC50 was no more than 10 nM.
`Fc1ccc(F)c([C@H]2CCCN2c2ccn3ncc(-c4nc5cc6nc7ccccc7nc6cc5[nH]4)c3n2)c1` [Compound 130, (R)-2-(5-(2-(2,5-difluorophenyl)pyrrolidin-1-yl)pyrazolo[1,5-a]pyrimidin-3-yl)-1H-imidazo[4,5-b]phenazine] was tested, and the IC50 was greater than 50 nM.
`Fc1ccc(F)c([C@H]2CCCN2c2ccn3ncc(-c4nc5cc6c(cc5o4)OCO6)c3n2)c1` [Compound 131, (R)-6-(5-(2-(2,5-difluorophenyl)pyrrolidin-1-yl)pyrazolo[1,5-a]pyrimidin-3-yl)-[1,3]dioxolo[4′,5′:4,5]benzo[1,2-d]oxazole] showed an IC50 of 10 to 50 nM.
With `OC1CCc2nc(-c3cnn4ccc(N5CCC[C@@H]5c5cc(F)ccc5F)nc34)nn2C1` (stereo partly drawn) [Compound 132, 2-(5-((R)-2-(2,5-difluorophenyl)pyrrolidin-1-yl)pyrazolo[1,5-a]pyrimidin-3-yl)-5,6,7,8-tetrahydro-[1,2,4]triazolo[1,5-a]pyridin-6-ol] the IC50 was 10 to 50 nM.
Work on `N#Cc1ccc2[nH]c(-c3cnn4ccc(N5CCC[C@@H]5c5cc(F)ccc5F)nc34)cc2c1` [Compound 133, (R)-2-(5-(2-(2,5-difluorophenyl)pyrrolidin-1-yl)pyrazolo[1,5-a]pyrimidin-3-yl)-1H-indole-5-carbonitrile] yielded an IC50 of 10 to 50 nM.
With `OCc1cc2nc(-c3cnn4ccc(N5CCC[C@@H]5c5cc(F)ccc5F)nc34)[nH]c2cn1` [Compound 135, (R)-(2-(5-(2-(2,5-difluorophenyl)pyrrolidin-1-yl)pyrazolo[1,5-a]pyrimidin-3-yl)-3H-imidazo[4,5-c]pyridin-6-yl)methanol] the IC50 was no more than 10 nM.

Same assay, conditions: numeric values; read-out: Trk A Kinase IC50
`Cc1nccc2nc(-c3cnn4ccc(N5CCC[C@@H]5c5cc(F)ccc5F)nc34)[nH]c12` [Compound 103, (R)-2-(5-(2-(2,5-difluorophenyl)pyrrolidin-1-yl)pyrazolo[1,5-a]pyrimidin-3-yl)-4-methyl-3H-imidazo[4,5-c]pyridine] was tested, and the IC50 was 1.2 nM.
`Fc1ccc(F)c([C@H]2CCCN2c2ccn3ncc(-c4nc5c(Cl)ccc(Cl)c5[nH]4)c3n2)c1` [Compound 104, (R)-3-(4,7-dichloro-1H-benzo[d]imidazol-2-yl)-5-(2-(2,5-difluorophenyl)pyrrolidin-1-yl)pyrazolo[1,5-a]pyrimidine] showed an IC50 of 13.5 nM.
`Fc1ccc(F)c([C@H]2CCCN2c2ccn3ncc(-c4nc5cc(Cl)c(Cl)cc5[nH]4)c3n2)c1` [Compound 105, (R)-3-(5,6-dichloro-1H-benzo[d]imidazol-2-yl)-5-(2-(2,5-difluorophenyl)pyrrolidin-1-yl)pyrazolo[1,5-a]pyrimidine] showed an IC50 of 32.9 nM.
Work on `Fc1ccc(F)c([C@H]2CCCN2c2ccn3ncc(-c4nc5ncc(C(F)(F)F)cc5[nH]4)c3n2)c1` [Compound 110, (R)-2-(5-(2-(2,5-difluorophenyl)pyrrolidin-1-yl)pyrazolo[1,5-a]pyrimidin-3-yl)-6-(trifluoromethyl)-1H-imidazo[4,5-b]pyridine] yielded an IC50 of 1.9 nM.
Work on `Fc1ccc(F)c([C@H]2CCCN2c2ccn3ncc(-c4nc5cc(F)cc(F)c5o4)c3n2)c1` [Compound 111, (R)-2-(5-(2-(2,5-difluorophenyl)pyrrolidin-1-yl)pyrazolo[1,5-a]pyrimidin-3-yl)-5,7-difluorobenzo[d]oxazole] yielded an IC50 of 5.3 nM.
`Fc1ccc(F)c([C@H]2CCCN2c2ccn3ncc(-c4nc5cccc(OC(F)(F)F)c5[nH]4)c3n2)c1` [Compound 113, (R)-5-(2-(2,5-difluorophenyl)pyrrolidin-1-yl)-3-(7-(trifluoromethoxy)-1H-benzo[d]imidazol-2-yl)pyrazolo[1,5-a]pyrimidine] was tested, and the IC50 was 6.7 nM.
Work on `Fc1ccc(F)c([C@H]2CCCN2c2ccn3ncc(-c4nc5ccc(C(F)(F)F)nc5[nH]4)c3n2)c1` [Compound 114, (R)-2-(5-(2-(2,5-difluorophenyl)pyrrolidin-1-yl)pyrazolo[1,5-a]pyrimidin-3-yl)-5-(trifluoromethyl)-3H-imidazo[4,5-b]pyridine] yielded an IC50 of 3.8 nM.
`Fc1ccc(F)c([C@H]2CCCN2c2ccn3ncc(-c4nc5cc6c(cc5[nH]4)OCCCO6)c3n2)c1` [Compound 134, (R)-2-(5-(2-(2,5-difluorophenyl)pyrrolidin-1-yl)pyrazolo[1,5-a]pyrimidin-3-yl)-7,8-dihydro-1H,6H-[1,4]dioxepino[2′,3′:4,5]benzo[1,2-d]imidazole] showed an IC50 of 1.1 nM.
Work on `Fc1ccc(F)c([C@H]2CCCN2c2ccn3ncc(-c4nc5cc(F)c(F)cc5[nH]4)c3n2)c1` [Compound 136, (R)-3-(5,6-difluoro-1H-benzo[d]imidazol-2-yl)-5-(2-(2,5-difluorophenyl)pyrrolidin-1-yl)pyrazolo[1,5-a]pyrimidine] yielded an IC50 of 1.9 nM.
